The values below come from patent publication US11267800B2, “Cyclohexyl acid triazole azines as LPA antagonists” (BRISTOL-MYERS SQUIBB COMPANY, priority 2017, dated 2022).

The test concerns the target T1, human LPA1 (Homo sapiens, UniProt Q92633).
T1 construct: expressed in transfected cells; host or cells: Chinese hamster ovary (CHO) cells
Description: LPA1 functional antagonist assay (calcium flux). It is filed as cell-based. Conditions: CHO cells overexpressing human LPA1; inhibition of calcium flux induced by 10 nM LPA; read-out: hLPA1 IC50. The method, boiled down: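 IC50 values come from 4-parameter logistic fits and mark 50% block of the calcium flux evoked by 10 nM LPA. Human LPA1-overexpressing CHO cells were calcium-dye loaded at 37 °C, then given test compound (0.08 nM–5 μM, 0.5% DMSO, HEPES-buffered HBSS with 0.1% fatty-acid-free BSA) for 20 min at room temperature before agonist.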

Counter-ions that a name gives are not always drawn.

What is called IC50 is the concentration that inhibits the measured activity by half.

T1 sequence (Q92633 whole entry): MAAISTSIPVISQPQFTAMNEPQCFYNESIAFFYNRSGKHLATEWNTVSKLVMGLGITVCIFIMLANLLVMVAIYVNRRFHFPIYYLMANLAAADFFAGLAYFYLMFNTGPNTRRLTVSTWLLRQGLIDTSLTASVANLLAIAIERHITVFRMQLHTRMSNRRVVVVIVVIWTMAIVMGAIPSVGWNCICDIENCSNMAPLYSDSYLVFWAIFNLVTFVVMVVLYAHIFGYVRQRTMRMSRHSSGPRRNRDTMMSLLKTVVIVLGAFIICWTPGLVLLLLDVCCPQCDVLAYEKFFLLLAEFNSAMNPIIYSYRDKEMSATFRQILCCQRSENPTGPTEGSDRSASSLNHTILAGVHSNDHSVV

For `Cc1nc(-c2nnn(C)c2CNc2ncc(Cl)c(C(C)C)n2)ccc1O[C@H]1CCC[C@H](C(=O)O)C1` [Example 158], the IC50 stood at 27 nM. Then `CCC(C)c1ccnc(NCc2c(-c3ccc(O[C@H]4CCC[C@H](C(=O)O)C4)c(C)n3)nnn2C)n1` (some centres unmarked) [Example 159], with 21 nM; and `Cc1nc(-c2nnn(C)c2CNc2nccc(C3CC(F)(F)C3)n2)ccc1O[C@H]1CCC[C@H](C(=O)O)C1` [Example 160], with 17 nM.

On to `COC(=O)c1cc(C(C)(C)C)nc(NCc2c(-c3ccc(O[C@H]4CCC[C@H](C(=O)O)C4)c(C)n3)nnn2C)n1` [Example 161], for which the IC50 came out at 443 nM. Then `Cc1nc(-c2nnn(C)c2CNc2nc(C(N)=O)cc(C(C)(C)C)n2)ccc1O[C@H]1CCC[C@H](C(=O)O)C1` [Example 162], with 2370 nM; and `COC(=O)c1cc(C2CCC2)nc(NCc2c(-c3ccc(O[C@H]4CCC[C@H](C(=O)O)C4)c(C)n3)nnn2C)n1` [Example 163], with 168 nM; and `Cc1nc(-c2nnn(C)c2CNc2nc(C#N)cc(C3CCC3)n2)ccc1O[C@H]1CCC[C@H](C(=O)O)C1` [Example 164], with 42 nM. Regarding `Cc1nc(-c2nnn(C)c2CNc2nc(C(N)=O)cc(C3CCC3)n2)ccc1O[C@H]1CCC[C@H](C(=O)O)C1` [Example 165], the IC50 was 243 nM.

As to `Cc1nc(-c2nnn(C)c2CNc2nc(C#N)cc(C(C)(C)C)n2)ccc1O[C@H]1CCC[C@H](C(=O)O)C1` [Example 166], the IC50 was determined as 180 nM. Then `Cc1nc(-c2nnn(C)c2CNc2nccc(C3(C)CC(F)(F)C3)n2)ccc1O[C@H]1CCC[C@H](C(=O)O)C1` [Example 167], with 55 nM; and `Cc1nc(-c2nnn(C)c2CNc2ncc(C#N)c(C3CCC3)n2)ccc1O[C@H]1CCC[C@H](C(=O)O)C1` [Example 168], with 129 nM. Then `COc1cc(C(C)(C)C)nc(NCc2c(-c3ccc(O[C@H]4CCC[C@H](C(=O)O)C4)c(C)n3)nnn2C)n1` [Example 169], with 86 nM. On to `COc1cc(C2CCC2)nc(NCc2c(-c3ccc(O[C@H]4CCC[C@H](C(=O)O)C4)c(C)n3)nnn2C)n1` [Example 170], for which the IC50 amounted to 16 nM. Then `Cc1nc(-c2nnn(C)c2CNc2ncc(C#N)c(C(C)(C)C)n2)ccc1O[C@H]1CCC[C@H](C(=O)O)C1` [Example 171], with 177 nM; and `COc1cc(OC)nc(NCc2c(-c3ccc(O[C@H]4CCC[C@H](C(=O)O)C4)c(C)n3)nnn2C)n1` [Example 172], with 61 nM. The result for `CCOc1cc(OCC)nc(NCc2c(-c3ccc(O[C@H]4CCC[C@H](C(=O)O)C4)c(C)n3)nnn2C)n1` [Example 173] reads 127 nM.

For the compound `CCOc1cc(C)nc(NCc2c(-c3ccc(O[C@H]4CCC[C@H](C(=O)O)C4)c(C)n3)nnn2C)n1` [Example 174], the IC50 was 56 nM. As for `Cc1nc(-c2nnn(C)c2CNc2nc(OC(C)C)cc(OC(C)C)n2)ccc1O[C@H]1CCC[C@H](C(=O)O)C1` [Example 175], the IC50 came out at 384 nM. The result for `COc1cc(C(C)C)nc(NCc2c(-c3ccc(O[C@H]4CCC[C@H](C(=O)O)C4)c(C)n3)nnn2C)n1` [Example 176] reads 27 nM; that for `CCCOc1nc(NCc2c(-c3ccc(O[C@H]4CCC[C@H](C(=O)O)C4)c(C)n3)nnn2C)nc(OC)n1` [Example 177], 250 nM. For the compound `Cc1nc(-c2nnn(C)c2CNc2nncc(C(C)(C)C)n2)ccc1O[C@H]1CCC[C@H](C(=O)O)C1` [Example 178], the concentration for half-maximal inhibition (IC50) was found to be 498 nM.

Take `Cc1nc(-c2nnn(C)c2CNc2cc(OC3CCC3)ccn2)ccc1O[C@H]1CCC[C@H](C(=O)O)C1` [Example 180]: the IC50 is 246 nM. Then `Cc1nc(-c2nnn(C)c2CNc2ncnc(C(C)C)n2)ccc1O[C@H]1CCC[C@H](C(=O)O)C1` [Example 181], with 106 nM. Then `Cc1nc(-c2nnn(C)c2CNc2ncnc(C(C)(C)C)n2)ccc1O[C@H]1CCC[C@H](C(=O)O)C1` [Example 182], with 693 nM; and `Cc1nc(-c2nnn(C)c2CNc2ncnc(C3CCC3)n2)ccc1O[C@H]1CCC[C@H](C(=O)O)C1` [Example 183], with 54 nM; and `Cc1nc(-c2nnn(C)c2CNc2ncnc(C3CCCC3)n2)ccc1O[C@H]1CCC[C@H](C(=O)O)C1` [Example 184], with 90 nM. Then `Cc1nc(-c2nnn(C)c2CNc2ncnc(C3CCCCC3)n2)ccc1O[C@H]1CCC[C@H](C(=O)O)C1` [Example 185], with 288 nM; and `Cc1nc(-c2nnn(C)c2CNc2nc(O)nc(C3CCCCC3)n2)ccc1O[C@H]1CCC[C@H](C(=O)O)C1` [Example 186], with 717 nM; and `Cc1nc(-c2nnn(C)c2CNc2ncnc(C3CC3)n2)ccc1O[C@H]1CCC[C@H](C(=O)O)C1` [Example 187, (1S,3S)-3-((6-(5-(((4-Cyclopropyl-1,3,5-triazin-2-yl)amino)methyl)-1-methyl-1H-1,2,3-triazol-4-yl)-2-methylpyridin-3-yl)oxy)cyclohexane-1-carboxylic acid, bis TFA Salt], with 48 nM. On to `Cc1nc(NCc2c(-c3ccc(O[C@H]4CCC[C@H](C(=O)O)C4)c(C)n3)nnn2C)nc(C2CC2)n1` [Example 188, (1S,3S)-3-((6-(5-(((4-Cyclopropyl-6-methyl-1,3,5-triazin-2-yl)amino)methyl)-1-methyl-1H-1,2,3-triazol-4-yl)-2-methylpyridin-3-yl)oxy)cyclohexane-1-carboxylic acid, bis TFA Salt], for which the IC50 was 138 nM. The result for `CCCCc1cnnc(NCc2c(-c3ccc(O[C@H]4CCC[C@H](C(=O)O)C4)c(C)n3)nnn2C)c1` [Example 189, (1S,3S)-3-((6-(5-(((5-Butylpyridazin-3-yl)amino)methyl)-1-methyl-1H-1,2,3-triazol-4-yl)-2-methylpyridin-3-yl)oxy)cyclohexane-1-carboxylic acid, bis TFA salt] reads 108 nM. With `Cc1nc(-c2nnn(C)c2CNc2cc(OC3CCC3)cnn2)ccc1O[C@H]1CCC[C@H](C(=O)O)C1` [Example 190, (1S,3S)-3-((6-(5-(((5-Cyclobutoxypyridazin-3-yl)amino)methyl)-1-methyl-1H-1,2,3-triazol-4-yl)-2-methylpyridin-3-yl)oxy)cyclohexane-1-carboxylic acid, bis TFA Salt], the IC50 was 187 nM.

For the compound `Cc1nc(-c2nnn(C)c2CNc2nnccc2OC2CCC2)ccc1O[C@H]1CCC[C@H](C(=O)O)C1` [Example 191, (1S,3S)-3-((6-(5-(((4-Cyclobutoxypyridazin-3-yl)amino)methyl)-1-methyl-1H-1,2,3-triazol-4-yl)-2-methylpyridin-3-yl)oxy)cyclohexane-1-carboxylic acid, bis TFA Salt], the IC50 was found to be 103 nM.

In the case of `Cc1nc(-c2nnn(C)c2CNc2nncc(-c3ccccc3)n2)ccc1O[C@H]1CCC[C@H](C(=O)O)C1` [Example 192, (1S,3S)-3-((2-Methyl-6-(1-methyl-5-(((5-phenyl-1,2,4-triazin-3-yl)amino)methyl)-1H-1,2,3-triazol-4-yl)pyridin-3-yl)oxy)cyclohexane-1-carboxylic acid, bis TFA Salt], the concentration for half-maximal inhibition (IC50) amounted to 53 nM.

With `CCCCc1cnnc(NCc2c(-c3ccc(O[C@H]4CCC[C@H](C(=O)O)C4)c(C)n3)nnn2C)n1` [Example 193, (1S,3S)-3-((6-(5-(((5-Butyl-1,2,4-triazin-3-yl)amino)methyl)-1-methyl-1H-1,2,3-triazol-4-yl)-2-methylpyridin-3-yl)oxy)cyclohexane-1-carboxylic acid, bis TFA], the IC50 amounted to 6.8 nM.
